Data published in US10722514B2 (FLX Bio, Inc., priority 2017, dated 2020).

Target: T1, recombinant full-length USP7 (Homo sapiens, UniProt Q93009)
T1 construct: A 25 μl reaction volume containing recombinant full-length USP7 (62 pM)
Test: USP7-mediated ubiquitin-rhodamine cleavage assay
Assay type: biochemical
Details: recombinant full-length USP7 62 pM; ubiquitin-rhodamine 100 nM; 30-minute incubation with compound, 1 hour reaction at room temperature; read-out: Potency: USP7 IC50
Procedure: In the case of the USP7 deubiquitylating enzyme, the IC50 of an USP7 inhibiting compound is the concentration of the compound that inhibits 50% of the activity observed in a USP7-mediated ubiquitin-rhodamine cleavage assay.
For the USP7 inhibitors disclosed herein, their potency was measured using the following test method.
A 25 μl reaction volume containing recombinant full-length USP7 (62 pM) in 20 mM HEPES pH 7.3, 150 mM NaCl, 1 mM TCEP, and 125 μg/ml BSA was assembled in wells of 384 well plates. Test compounds were dispensed with a Hewlett Packard D300 digital dispenser (1% final DMSO). Following a 30-minute incubation at room temperature, ubiquitin-rhodamine was added with the D300 to a final concentration of 100 nM and the reaction was allowed to proceed for 1 hour at room temperature protected from light. The reaction was stopped by the addition of 5 μl 1M acetic acid. Rhodamine fluorescence was measured using an Envision plate reader (Perkin Elmer) and IC50 values were determined by non-linear regression using a 4-parameter fit in a Dotmatics (Bishops Stortford, Hertfordshire, England) software package.

T1 sequence (Q93009 whole entry): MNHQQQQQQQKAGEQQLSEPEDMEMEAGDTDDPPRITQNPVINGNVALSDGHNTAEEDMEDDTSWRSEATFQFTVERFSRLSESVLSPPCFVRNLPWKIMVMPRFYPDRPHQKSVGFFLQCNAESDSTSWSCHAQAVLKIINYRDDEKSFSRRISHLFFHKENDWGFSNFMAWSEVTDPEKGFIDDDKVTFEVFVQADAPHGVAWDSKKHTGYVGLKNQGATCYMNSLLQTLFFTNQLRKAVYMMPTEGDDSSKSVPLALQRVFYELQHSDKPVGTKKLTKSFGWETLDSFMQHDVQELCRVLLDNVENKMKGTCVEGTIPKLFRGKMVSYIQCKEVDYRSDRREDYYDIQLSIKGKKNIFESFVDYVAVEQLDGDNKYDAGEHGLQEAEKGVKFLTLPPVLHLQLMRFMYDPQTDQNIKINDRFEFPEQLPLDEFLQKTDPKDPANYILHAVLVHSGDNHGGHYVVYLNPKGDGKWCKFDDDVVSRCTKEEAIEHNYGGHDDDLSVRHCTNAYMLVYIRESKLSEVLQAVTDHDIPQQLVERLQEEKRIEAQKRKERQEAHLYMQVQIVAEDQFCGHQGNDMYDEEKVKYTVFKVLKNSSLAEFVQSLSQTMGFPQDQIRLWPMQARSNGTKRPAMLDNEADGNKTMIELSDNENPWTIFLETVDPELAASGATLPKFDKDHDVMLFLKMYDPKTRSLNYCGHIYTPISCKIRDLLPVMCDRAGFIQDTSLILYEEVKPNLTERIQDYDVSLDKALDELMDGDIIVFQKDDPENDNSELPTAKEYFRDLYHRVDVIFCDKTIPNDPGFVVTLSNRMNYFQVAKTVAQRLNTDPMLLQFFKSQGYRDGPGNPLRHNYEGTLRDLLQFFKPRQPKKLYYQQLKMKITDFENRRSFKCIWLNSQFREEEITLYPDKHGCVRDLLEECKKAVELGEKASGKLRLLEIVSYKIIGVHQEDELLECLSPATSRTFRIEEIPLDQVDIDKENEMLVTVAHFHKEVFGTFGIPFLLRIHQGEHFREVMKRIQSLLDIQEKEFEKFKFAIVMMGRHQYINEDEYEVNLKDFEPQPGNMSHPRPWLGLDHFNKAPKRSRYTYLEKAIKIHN

| SMILES | IC50 [µM] |
| --- | --- |
| OCc1cc2nccc(-c3cc(Cl)ccc3OCC3CNC3)c2s1 [Example 29, (7-(2-(Azetidin-3-ylmethoxy)-5-chlorophenyl)thieno[3,2-b]pyridin-2-yl)methanol] | 1 to 10 |
| Cc1cc(Cl)cc(-c2ccnc3cc(CO)sc23)c1OCCC1CNC1 [Example 30, (7-(2-(2-(Azetidin-3-yl)ethoxy)-5-chloro-3-methylphenyl)thieno[3,2-b]pyridin-2-yl)methanol] | > 30 |
| CCC(O)c1cc2nccc(-c3cc(C#N)cc(C)c3OCC3(C)CNC3)c2s1 (stereo not drawn) [Example 31, 3-(2-(1-Hydroxypropyl)thieno[3,2-b]pyridin-7-yl)-5-methyl-4-((3-methylazetidin-3-yl)methoxy)benzonitrile] | 1 to 10 |
| Cc1cc(Cl)cc(-c2ccnc3cc(CO)sc23)c1OC(C)C1CNC1 (stereo not drawn) [Example 32, (7-(2-(1-(Azetidin-3-yl)ethoxy)-5-chloro-3-methylphenyl)thieno[3,2-b]pyridin-2-yl)methanol] | 10 to 30 |
| CCC(O)c1cc2nccc(-c3cc(Cl)cc(C)c3OCC3(C)CNC3)c2s1 (stereo not drawn) [Example 33, 1-(7-(5-Chloro-3-methyl-2-((3-methylazetidin-3-yl)methoxy)phenyl)thieno[3,2-b]pyridin-2-yl)propan-1-ol] | 1 to 10 |
| CCC(O)c1cc2nccc(-c3cc(Cl)cc(C)c3OC(C)C3CNC3)c2s1 (stereo not drawn) [Example 34, 1-(7-(2-(1-(Azetidin-3-yl)ethoxy)-5-chloro-3-methylphenyl)thieno[3,2-b]pyridin-2-yl)propan-1-ol] | 10 to 30 |
| CCC(O)c1cc2nccc(-c3cc(Cl)cc(C)c3OCC3(F)CNC3)c2s1 (stereo not drawn) [Example 35, 1-(7-(5-Chloro-2-((3-fluoroazetidin-3-yl)methoxy)-3-methylphenyl)thieno[3,2-b]pyridin-2-yl)propan-1-ol] | 1 to 10 |
| CCC(O)c1cc2nccc(-c3cc(C#N)cc(C)c3OCC3(F)CNC3)c2s1 (stereo not drawn) [Example 36, 4-((3-Fluoroazetidin-3-yl)methoxy)-3-(2-(1-hydroxypropyl)thieno[3,2-b]pyridin-7-yl)-5-methylbenzonitrile] | 1 to 10 |
| Cc1cc2nccc(-c3cc(Cl)cc(C)c3OCC3CNC3)c2s1 [Example 37, 7-(2-(Azetidin-3-ylmethoxy)-5-chloro-3-methylphenyl)-2-methylthieno[3,2-b]pyridine] | 1 to 10 |
| CCC(O)c1cc2nccc(-c3cc(Cl)cc(C)c3OCC3(CC)CNC3)c2s1 (stereo not drawn) [Example 38, 1-(7-(5-Chloro-2-((3-ethylazetidin-3-yl)methoxy)-3-methylphenyl)thieno[3,2-b]pyridin-2-yl)propan-1-ol] | < 1 |
| CCC(O)c1cc2nccc(-c3cc(Cl)cc(C)c3OCC3(C#N)CNC3)c2s1 (stereo not drawn) [Example 39, 3-((4-Chloro-2-(2-(1-hydroxypropyl)thieno[3,2-b]pyridin-7-yl)-6-methylphenoxy)methyl)azetidine-3-carbonitrile] | < 1 |
| Cc1cc(Cl)cc(-c2ccnc3cc(CO)sc23)c1OC1COC2(CNC2)C1 (stereo not drawn) [Example 40, (7-(2-((5-Oxa-2-azaspiro[3.4]octan-7-yl)oxy)-5-chloro-3-methylphenyl)thieno[3,2-b]pyridin-2-yl)methanol] | 10 to 30 |
| Cc1cc(Cl)cc(-c2ccnc3cc(CO)sc23)c1OCC1(C#N)CNC1 [Example 41, 3-((4-Chloro-2-(2-(hydroxymethyl)thieno[3,2-b]pyridin-7-yl)-6-methylphenoxy)methyl)azetidine-3-carbonitrile] | < 1 |
| CC(Oc1ccc(Cl)cc1-c1ccnc2cc(CO)sc12)C1CNC1 (stereo not drawn) [Example 42, (7-(2-(1-(Azetidin-3-yl)ethoxy)-5-chlorophenyl)thieno[3,2-b]pyridin-2-yl)methanol] | 10 to 30 |
| Cc1cc(C#N)cc(-c2ccnc3cc(CO)sc23)c1OCC1(C)CNC1 [Example 43, 3-(2-(Hydroxymethyl)thieno[3,2-b]pyridin-7-yl)-5-methyl-4-((3-methylazetidin-3-yl)methoxy)benzonitrile] | 1 to 10 |
| Cc1cc(C#N)cc(-c2ccnc3ccsc23)c1OCC1(C)CNC1 [Example 44, 3-Methyl-4-((3-methylazetidin-3-yl)methoxy)-5-(thieno[3,2-b]pyridin-7-yl)benzonitrile] | 1 to 10 |
| Cc1cc(Cl)cc(-c2ccnc3ccsc23)c1OCC1(C)CNC1 [Example 45, 7-(5-Chloro-3-methyl-2-((3-methylazetidin-3-yl)methoxy)phenyl)thieno[3,2-b]pyridine] | < 1 |

| SMILES | IC50 [µM] |
| --- | --- |
| Cc1cc(C#N)cc(-c2ccnc3cc(CN4C(=O)CCC4=O)sc23)c1OCC1(C)CNC1 [Example 46, 3-(2-((2,5-Dioxopyrrolidin-1-yl)methyl)thieno[3,2-b]pyridin-7-yl)-5-methyl-4-((3-methylazetidin-3-yl)methoxy)benzonitrile] | < 1 |
| CCC(O)c1cc2ncnc(-c3cc(Cl)cc(C)c3OCC3(C)CNC3)c2s1 (stereo not drawn) [Example 47, 1-(4-(5-chloro-3-methyl-2-((3-methylazetidin-3-yl)methoxy)phenyl)thieno[3,2-d]pyrimidin-6-yl)propan-1-ol] | 1 to 10 |
| Cc1cc(Cl)cc(-c2ccnc3cc(CO)sc23)c1OC1CC2(CNC2)C1 [Example 48, (7-(2-((2-Azaspiro[3.3]heptan-6-yl)oxy)-5-chloro-3-methylphenyl)thieno[3,2-b]pyridin-2-yl)methanol] | 10 to 30 |
| Cc1cc(Cl)cc(-c2ccnc3cc(CO)sc23)c1OC1CCC12CNC2 (stereo not drawn) [Example 49, (7-(2-((2-Azaspiro[3.3]heptan-5-yl)oxy)-5-chloro-3-methylphenyl)thieno[3,2-b]pyridin-2-yl)methanol] | 1 to 10 |
| CCC(O)c1cc2nccc(-c3cc(Cl)cc(C)c3O[C@H]3CCNC3)c2s1 (stereo partly drawn) [Example 50, 1-(7-(5-Chloro-3-methyl-2-(((S)-pyrrolidin-3-yl)oxy)phenyl)thieno[3,2-b]pyridin-2-yl)propan-1-ol] | 1 to 10 |
| CCC(O)c1cc2nccc(-c3cc(Cl)cc(C)c3O[C@@H]3CCNC3)c2s1 (stereo partly drawn) [Example 51, 1-(7-(5-Chloro-3-methyl-2-(((R)-pyrrolidin-3-yl)oxy)phenyl)thieno[3,2-b]pyridin-2-yl)propan-1-ol] | 1 to 10 |
| Cc1cc(Cl)cc(-c2ccnc3cc(CN4C(=O)CCC4=O)sc23)c1OCC12CNCC1C2 (stereo not drawn) [Example 52, 1-((7-(2-((3-Azabicyclo[3.1.0]hexan-1-yl)methoxy)-5-chloro-3-methylphenyl)thieno[3,2-b]pyridin-2-yl)methyl)pyrrolidine-2,5-dione] | < 1 |
| CN[C@@H]1CC[C@@H](Oc2c(C)cc(Cl)cc2-c2ccnc3cc(CN4C(=O)CCC4=O)sc23)C1 [Example 53, 1-((7-(5-Chloro-3-methyl-2-(((1R,3R)-3-(methylamino)cyclopentyl)oxy)phenyl)thieno[3,2-b]pyridin-2-yl)methyl)pyrrolidine-2,5-dione] | < 1 |
| O=C1CCC(=O)N1Cc1cc2nccc(-c3cc(C(F)(F)F)cc(Cl)c3O[C@@H]3CNC[C@@H]3F)c2s1 [Example 54, 1-((7-(3-Chloro-2-(((3R,4S)-4-fluoropyrrolidin-3-yl)oxy)-5-(trifluoromethyl)phenyl)thieno[3,2-b]pyridin-2-yl)methyl)pyrrolidine-2,5-dione] | < 1 |
| Cc1cc(Cl)cc(-c2ccnc3cc(CO)sc23)c1O[C@@H]1CNC[C@H]1C [Example 55, (7-(5-Chloro-3-methyl-2-(((3S,4R)-4-methylpyrrolidin-3-yl)oxy)phenyl)thieno[3,2-b]pyridin-2-yl)methanol] | 10 to 30 |
| Cc1cc(Cl)cc(-c2ccnc3cc(CO)sc23)c1O[C@@H]1CNC[C@@H]1C [Example 56, (7-(5-Chloro-3-methyl-2-(((3S,4S)-4-methylpyrrolidin-3-yl)oxy)phenyl)thieno[3,2-b]pyridin-2-yl)methanol] | 1 to 10 |
| Cc1cc(Cl)cc(-c2ccnc3cc(CO)sc23)c1O[C@@H]1CNC[C@@H]1F [Example 57, (7-(5-Chloro-2-(((3R,4S)-4-fluoropyrrolidin-3-yl)oxy)-3-methylphenyl)thieno[3,2-b]pyridin-2-yl)methanol] | 1 to 10 |
| Cc1cc(Cl)cc(-c2ccnc3cc(CO)sc23)c1OC[C@H]1CCCN1 [Example 58, (R)-(7-(5-Chloro-3-methyl-2-(pyrrolidin-2-ylmethoxy)phenyl)thieno[3,2-b]pyridin-2-yl)methanol] | 10 to 30 |
| Cc1cc(Cl)cc(-c2ccnc3cc(Cn4c(=O)ccn(CC(F)(F)F)c4=O)sc23)c1O[C@@H]1CC[C@@H](N)C1 [Example 59, 3-((7-(2-(((1R,3R)-3-Aminocyclopentyl)oxy)-5-chloro-3-methylphenyl)thieno[3,2-b]pyridin-2-yl)methyl)-1-(2,2,2-trifluoroethyl)pyrimidine-2,4(1H,3H)-dione] | < 1 |
| Cc1cc(Cl)cc(-c2ccnc3cc(CO)sc23)c1O[C@@H]1CN[C@@H](C)C1 [Example 60, (7-(5-Chloro-3-methyl-2-(((3S,5S)-5-methylpyrrolidin-3-yl)oxy)phenyl)thieno[3,2-b]pyridin-2-yl)methanol] | 10 to 30 |
| Cc1cc(Cl)cc(-c2ccnc3cc(Cn4c(=O)ccn(CC(F)(F)F)c4=O)sc23)c1OC1CNC1 [Example 61, 3-((7-(2-(Azetidin-3-yloxy)-5-chloro-3-methylphenyl)thieno[3,2-b]pyridin-2-yl)methyl)-1-(2,2,2-trifluoroethyl)pyrimidine-2,4(1H,3H)-dione] | < 1 |
